In general, IC50 refers to the concentration that gives 50% inhibition. Higher therefore signals a need for much substance. As usually defined, the fraction unbound is the share of the substance not bound to proteins or other matrix. What is called solubility is the concentration that dissolves in the medium under given conditions. Low values mean little dissolved substance, high ones much dissolved substance. As a reminder, the logD is lipophilicity at a set pH, counting ionised and neutral species. Read a high logD as higher lipophilicity. Usually clearance stands for the volume of plasma or blood freed of the substance per unit of time. Usually bioavailability stands for the share of a dose that reaches the circulation, judged against a reference dose that is usually intravenous. The low end stands for poor availability, the high end for good availability. Usually AUC stands for concentration integrated over time. A high value points to high exposure.

≈ marks a conversion by molar mass, not a printed value.

The subject of one series is MCF7. Briefly: cells. The conditions noted are these: Homo sapiens, MCF7, 48 h.
Series [1] deals with Cyclin-dependent kinase 2 (Homo sapiens, UniProt P24941). The series can be described thus: Inhibition of CDK2/Cyclin E.
Series [2] is described as follows: Protein binding in rat plasma assessed as unbound fraction. Format: ADME, cell-free.
The nature of series [3]: Aqueous solubility at pH 7.4. Conditions: buffer.
A short description of series [4]: Lipophilicity Log D at pH 7.4. The conditions noted are these: buffer.
The nature of series [5]: Plasma clearance in rat. Format: ADME, organism-based.
The subject of series [6] is SW-620. The series can be described thus: animal or person. Conditions: Mus musculus, SW-620, po, 672 h, read-out: INH.
Description: Antitumor activity against human SW620 cells xenografted nude mouse assessed as tumor growth inhibition at 12.5 mg/kg, po once daily for 28 days
Series [7] in a line: Oral bioavailability in rat. The series is classed as ADME, organism-based. Conditions: in vivo.
Series [8] can be described thus: Volume of distribution at steady state in dog. The series is classed as ADME, organism-based, Canis lupus familiaris. The conditions noted are these: in vivo, read-out: Vdss.
The nature of series [9]: AUC in rat at 2 mg/kg, po. Format: ADME, organism-based. Conditions: plasma. The arrangement: dose 2 mg/kg, route oral.
The nature of series [10]: Oral bioavailability in dog. The conditions noted are these: in vivo. The series is classed as ADME, organism-based, Canis lupus familiaris.
The nature of series [11]: Plasma clearance in dog. Format: ADME, organism-based, Canis lupus familiaris.
Series [12] is described as follows: Volume of distribution at steady state in rat. Format: ADME, organism-based. Conditions: in vivo, read-out: Vdss.
The target of series [13] is Voltage-gated inwardly rectifying potassium channel KCNH2 (Homo sapiens, UniProt Q12809).
The test system of series [14] is SW-620. The series can be described thus: Antitumor activity against human SW620 cells xenografted nude mouse assessed as tumor growth inhibition at 7.5 mg/kg, po once daily for 28 days. The conditions noted are these: SW-620, po, 672 h, read-out: INH. (A xenograft is tissue or cells of one species grown in another, often human tumour cells in immunodeficient mice.)

Sequence of Voltage-gated inwardly rectifying potassium channel KCNH2 (Q12809 whole entry): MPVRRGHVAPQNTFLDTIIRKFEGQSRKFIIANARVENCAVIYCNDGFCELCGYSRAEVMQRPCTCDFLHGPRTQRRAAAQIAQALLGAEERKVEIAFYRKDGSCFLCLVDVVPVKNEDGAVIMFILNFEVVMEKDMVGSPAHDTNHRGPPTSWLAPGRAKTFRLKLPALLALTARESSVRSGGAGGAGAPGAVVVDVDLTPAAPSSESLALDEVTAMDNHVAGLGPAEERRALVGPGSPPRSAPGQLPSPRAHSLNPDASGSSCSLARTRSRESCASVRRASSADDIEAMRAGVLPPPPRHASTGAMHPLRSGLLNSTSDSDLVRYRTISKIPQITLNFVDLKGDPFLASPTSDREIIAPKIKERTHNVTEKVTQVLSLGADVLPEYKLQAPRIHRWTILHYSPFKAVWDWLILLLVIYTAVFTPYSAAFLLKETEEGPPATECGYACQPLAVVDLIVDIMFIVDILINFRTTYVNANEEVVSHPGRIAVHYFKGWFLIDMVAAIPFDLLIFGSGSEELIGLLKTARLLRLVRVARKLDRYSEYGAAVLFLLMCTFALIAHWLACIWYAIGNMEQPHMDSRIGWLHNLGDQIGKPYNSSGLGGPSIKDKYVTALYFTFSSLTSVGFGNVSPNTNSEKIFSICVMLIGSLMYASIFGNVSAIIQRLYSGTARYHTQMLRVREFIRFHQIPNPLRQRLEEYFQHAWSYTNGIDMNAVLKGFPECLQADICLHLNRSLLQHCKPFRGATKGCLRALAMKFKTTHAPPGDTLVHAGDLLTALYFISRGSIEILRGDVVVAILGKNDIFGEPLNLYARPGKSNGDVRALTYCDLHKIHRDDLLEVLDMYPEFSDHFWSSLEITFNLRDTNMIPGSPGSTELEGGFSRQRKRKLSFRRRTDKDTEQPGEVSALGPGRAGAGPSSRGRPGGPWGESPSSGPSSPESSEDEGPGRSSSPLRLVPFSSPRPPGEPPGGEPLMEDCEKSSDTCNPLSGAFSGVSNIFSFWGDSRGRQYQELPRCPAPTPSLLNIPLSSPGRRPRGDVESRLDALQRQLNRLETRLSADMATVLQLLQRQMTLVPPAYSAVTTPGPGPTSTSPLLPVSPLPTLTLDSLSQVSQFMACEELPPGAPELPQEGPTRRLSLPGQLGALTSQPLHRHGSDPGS
Description for MCF7: Antiproliferative activity against human MCF7 cells after 48 hrs

With `Cc1ncc(-c2ccnc(Nc3ccc(C#N)cc3)n2)n1C(C)C`, the IC50 in the series with MCF7 is 70 nM; in series [1], less than 3 nM.
As for `Cc1ncc(-c2nc(Nc3ccc(N4CCC[C@H]4C(=O)N(C)C)cc3)ncc2F)n1C(C)C`, in [1], the IC50 came to 46 nM. This counts as double-digit nanomolar.
On to `Cc1ncc(-c2ccnc(Nc3ccc(N(C)C)cc3)n2)n1C(C)C`, for which the values for the IC50 (in the series on MCF7; in [1]) were 68 nM and 24 nM, respectively.
`CC(=O)NC1CN(c2ccc(Nc3ncc(F)c(-c4cnc(C)n4C(C)C)n3)cc2)C1`: the IC50 in [1] was 0.5 nM. In series [2], the unbound share (fraction unbound) was 0.05. In series [3], this compound returned a solubility of 120 µM (≈ 50.8 µg/mL). Moreover, in series [4], the logD stood at 2.8.
Take `CC(=O)N[C@@H]1CCN(c2ccc(Nc3ncc(F)c(-c4cnc(C)n4C(C)C)n3)cc2)C1`: the IC50 in the series with MCF7 was 140 nM; in series [1], more than 0.3 nM.
As to `Cc1ncc(-c2nc(Nc3ccc(N4CCN(C(=O)CO)CC4)cc3)ncc2F)n1C(C)C`, the clearance in [5] worked out at 16 mL/min/kg; in series [11], 24 mL/min/kg. The IC50 came out at 75 nM in the series with MCF7 and 6 nM in [1]. In addition, in the series with SW-620 [6], the inhibition in vivo at 12.5 mg/kg came to 89%. The results for the bioavailability in [7] and in series [10] were 67% and 31%, respectively. Further, the Vd was found to be 3.5 L/kg in [8] and 1 L/kg in series [12]. The compound further displayed an AUC in [9] of 0.17 µM·h. The compound further came in with a solubility in [3] of 160 µM (≈ 72.6 µg/mL). The compound also gave a logD in series [4] of 2.2.
`Cc1ncc(-c2ccnc(Nc3ccc(N4CCN(S(C)(=O)=O)CC4)cc3)n2)n1C(C)C`: the IC50 is 72 nM in the series on MCF7, less than 3 nM in [1] and 5500 nM in [13]. The same compound displayed an AUC in series [9] of 0.08 µM·h. In addition, in series [2], the fraction unbound was 0.08. For the same compound, the solubility in [3] came to 9 µM (≈ 4.1 µg/mL). In addition, in [4], the logD was 2.6.
For `CC(=O)N1CCN(c2ccc(Nc3nccc(-c4cnc(C)n4C(C)C)n3)cc2)CC1`, the IC50 with MCF7 is 145 nM; in series [1], less than 3 nM.
Take `Cc1ncc(-c2ccnc(Nc3ccc(N4CCN(S(=O)(=O)CCN(C)C)CC4)cc3)n2)n1C(C)C`: the IC50 is less than 39 nM with MCF7, 3 nM in series [1] and 18000 nM in series [13]. The logD in [4] is 2.5.
Consider `Cc1ncc(-c2ccnc(Nc3ccc(N4CCN(C(=O)CO)CC4)cc3)n2)n1C(C)C`, for which the clearance in series [5] is 15 mL/min/kg; in series [11], 19 mL/min/kg. Besides, the bioavailability in series [7] is 59%; in [10] it was 79%. The Vd in [8] was found to be 3.4 L/kg; in [12] it was 2.5 L/kg. Besides, the AUC in series [9] amounted to 0.4 µM·h. The inhibition in vivo at 7.5 mg/kg in the series on SW-620 [14] is 80%. The fraction unbound in series [2] was determined as 0.22.
Regarding `Cc1ncc(-c2ccnc(Nc3ccc(N4CCN(C(=O)CN(C)C)CC4)cc3)n2)n1C(C)C`, the IC50 was less than 27 nM in the series on MCF7, 16 nM in series [1] and more than 32000 nM in series [13]. In series [2], the fraction unbound was 0.4. Moreover, in series [3], the solubility was more than 3400 µM. The same compound displayed a logD in series [4] of 3.3.
With `CCN(CC)CC(=O)N1CCN(c2ccc(Nc3nccc(-c4cnc(C)n4C(C)C)n3)cc2)CC1`, the IC50 in the series with MCF7 is less than 22 nM. Besides, the solubility in series [3] was more than 3700 µM.
For `Cc1ncc(-c2ccnc(Nc3ccc(F)cc3)n2)n1C(C)C`, the IC50 with MCF7 amounted to 100 nM; in series [1], 3 nM.
In the case of `Cc1ncc(-c2ccnc(Nc3ccc(Cl)cc3)n2)n1C(C)C`, the figures for the IC50 (in the series on MCF7; in series [1]) were 72 nM and less than 3 nM, respectively.
On to `COCCNS(=O)(=O)c1ccc(Nc2nccc(-c3cnc(C)n3C(C)C)n2)cc1`, for which, in the series with MCF7, the IC50 was found to be 45 nM.
As for `COc1ccc(Nc2nccc(-c3cnc(C)n3C(C)C)n2)cc1`, the values for the IC50 (with MCF7; in [1]) were 72 nM and 8 nM, respectively.
As to `COCCS(=O)(=O)N1CCN(c2ccc(Nc3nccc(-c4cnc(C)n4C(C)C)n3)cc2)CC1`, the IC50 in the series on MCF7 is 93 nM; in [1] it was less than 3 nM.
For `Cc1ncc(-c2ccnc(Nc3ccc(N4CCOCC4)cc3)n2)n1C(C)C`, the 50% inhibitory concentration (IC50) with MCF7 amounted to 290 nM; in [1], 9 nM. This compound also showed an exposure (AUC) in series [9] of 0.16 µM·h. For the same compound, the solubility in [3] came to 56 µM (≈ 21.2 µg/mL). The logD in series [4] worked out at 2.9.
In the case of `Cc1ncc(-c2nc(Nc3ccc(N4CCOCC4)cc3)ncc2F)n1C(C)C`, the clearance was 26 mL/min/kg in series [5] and 140 mL/min/kg in [11]. Moreover, the IC50 in the series on MCF7 was found to be 110 nM; in series [1] it was 8 nM; in series [13], 11000 nM. Further, the bioavailability in series [7] was determined as 34%; in series [10] it was 3%. For the same compound, the values for the Vd in series [8] and in series [12] were 2.9 L/kg and 1.3 L/kg, respectively. In addition, the AUC in [9] amounted to 0.19 µM·h. In addition, the solubility in [3] was 120 µM (≈ 47.6 µg/mL). The same compound displayed a logD in series [4] of 3.
Regarding `Cc1ncc(-c2ccnc(Nc3ccc(N4CCN(C(=O)[C@H](C)O)CC4)cc3)n2)n1C(C)C`, the results for the IC50 (in the series with MCF7; in [1]; in series [13]) were 220 nM, 17 nM and more than 24000 nM, respectively. Further, the AUC in series [9] came out at 0.16 µM·h.

For the origin of these results see ChEMBL document CHEMBL1155842, “Imidazole piperazines: SAR and development of a potent class of cyclin-dependent kinase inhibitors with a novel binding mode” (Bioorg Med Chem Lett, 2008).
